# Experimental data published in US20080039319A1, “Fungicidal Mixtures and Novel Triazolopyrimidines” (Basf Aktiengesellschaft, priority 2004, published 2008).
# Tests used:
# Phytophthora infestans = details: in vivo
# Plasmopara viticola = assay: Comparative Test 3: activity against Peronospora of grapevines caused by Plasmopara viticola; assay type: in vivo; details: individual active compound
# Botrytis cinerea = assay: Use Example 7: activity against gray mold on bell pepper leaves caused by Botrytis cinerea, protective application; assay type: in vivo; details: individual active compound
# [1] = system: Erysiphe [syn. Blumeria] graminis forma specialis. Tritici; assay: Use Example 5: activity against mildew of wheat caused by Erysiphe [syn. Blumeria] graminis forma specialis tritici, 3-day protective application; assay type: in vivo, Erysiphe graminis f. sp. tritici; details: individual active compound
# [2] = system: Pyrenophora [syn. Drechslera] teres; assay: Use Example 4: net blotch of barley caused by Pyrenophora teres, second test; assay type: in vivo; details: individual active compound
# Alternaria solani [3] = assay: Comparative Test 1: activity against early blight of tomato caused by Alternaria solani; assay type: in vivo; details: individual active compound
# Sphaerotheca fuliginea = assay: Use Example 8: activity against mildew on cucumber leaves caused by Sphaerotheca fuliginea, protective application; details: in vivo
# [4] = system: Pyrenophora [syn. Drechslera] teres; assay: Use Example 4: activity against net blotch of barley caused by Pyrenophora teres, 1-day protective application (first test); assay type: in vivo; details: individual active compound
# Alternaria solani [5] = assay: Use Example 6: activity against early blight of tomato caused by Alternaria solani (second test); assay type: in vivo; details: individual active compound
compound,measurement,setting,value
"O=C(Nc1ccccc1-c1ccc(Cl)cc1)c1cccnc1Cl [boscalid (L-2), 2-chloro-N-(4′-chlorobiphenyl-2-yl)nicotinamide]",Efficacy in % of the untreated control,Phytophthora infestans,0%
"N#Cc1sc2c(=O)c3ccccc3c(=O)c=2sc1C#N [dithianon (L-3), 5,10-dioxo-5,10-dihydronaphtho[2,3-b][1,4]dithiine-2,3-dicarbonitrile]",Efficacy in % of the untreated control,Phytophthora infestans,0%
"O=C1C2CC=CCC2C(=O)N1SC(Cl)(Cl)Cl (stereo not shown) [captan (P-1), 2-trichloromethylsulfanyl-3a,4,7,7a-tetrahydroisoindole-1,3-dione]",Efficacy in % of the untreated control,Plasmopara viticola; 12.5 ppm in the spray liquor,0%
same,Efficacy in % of the untreated control,Plasmopara viticola; 50 ppm in the spray liquor,0%
same,Efficacy in % of the untreated control,Botrytis cinerea; 12.5 ppm in the spray liquor,11%
same,Efficacy in % of the untreated control,Botrytis cinerea; 100 ppm in the spray liquor,56%
"CC(Cc1ccc(C(C)(C)C)cc1)CN1CC(C)OC(C)C1 [fenpropimorph (D-1), 4-[3-(4-tert-butylphenyl)-2-methylpropyl]-2,6-dimethylmorpholine]",Efficacy in % of the untreated control,[1]; 15 ppm in the spray liquor,0%
same,Efficacy in % of the untreated control,[1]; 30 ppm in the spray liquor,67%
"N#Cc1c(Cl)c(Cl)c(Cl)c(C#N)c1Cl [chlorothalonil (Q-1), 2,4,5,6-tetrachloroisophthalonitrile]",Efficacy in % of the untreated control,[2]; 12.5 ppm in the spray liquor,0%
same,Efficacy in % of the untreated control,[2]; 50 ppm in the spray liquor,0%
same,Efficacy in % of the untreated control,[2]; 100 ppm in the spray liquor,0%
"COc1ccc(C(=CC(=O)N2CCOCC2)c2ccc(Cl)cc2)cc1OC [dimethomorph (G-1), 3-(4-chlorophenyl)-3-(3,4-dimethoxyphenyl)-1-morpholin4-ylpropenone]",Efficacy in % of the untreated control,Alternaria solani [3]; 3.125 ppm in the spray liquor,0%
same,Efficacy in % of the untreated control,Alternaria solani [3]; 12.5 ppm in the spray liquor,0%
same,Efficacy in % of the untreated control,Alternaria solani [3]; 25 ppm in the spray liquor,0%
same,Efficacy in % of the untreated control,Alternaria solani [3]; 50 ppm in the spray liquor,0%
"S1SSSSSSS1 [sulfur (M-1), sulfur]",Efficacy in % of the untreated control,Botrytis cinerea; 0.3125 ppm in the spray liquor,22%
same,Efficacy in % of the untreated control,Botrytis cinerea; 0.625 ppm in the spray liquor,56%
"N#Cc1c[nH]cc1-c1cccc2c1OC(F)(F)O2 [fludioxonil (O-1), 4-(2,2-difluorobenzo[1,3]dioxol-4-yl)-1H-pyrrole-3-carbonitrile]",Efficacy in % of the untreated control,Sphaerotheca fuliginea,56%
CC1CCN(c2c(-c3c(F)cccc3Cl)c(Cl)nc3ncnn23)CC1 [(π)],Efficacy in % of the untreated control,Alternaria solani [3]; 2.5 ppm in the spray liquor,0%
same,Efficacy in % of the untreated control,Alternaria solani [3]; 5 ppm in the spray liquor,21%
same,Efficacy in % of the untreated control,Alternaria solani [3]; 10 ppm in the spray liquor,44%
same,Efficacy in % of the untreated control,Phytophthora infestans,0%
same,Efficacy in % of the untreated control,Plasmopara viticola; 5 ppm in the spray liquor,5%
same,Efficacy in % of the untreated control,Plasmopara viticola; 10 ppm in the spray liquor,19%
"COCC(=O)N(c1c(C)cccc1C)C(C)C(=O)OC (racemic) [metalaxyl (C-1), methyl N-(methoxyacetyl)-N-(2,6-xylyl)-DL-alaninate]",Efficacy in % of the untreated control,Alternaria solani [3]; 6.25 ppm in the spray liquor,0%
same,Efficacy in % of the untreated control,Alternaria solani [3]; 50 ppm in the spray liquor,0%
manganese ethylenebis(dithiocarbamate) zinc complex [mancozeb (K-1)],Efficacy in % of the untreated control,[2]; 6.3 ppm in the spray liquor,0%
same,Efficacy in % of the untreated control,[2]; 12.5 ppm in the spray liquor,0%
same,Efficacy in % of the untreated control,[2]; 50 ppm in the spray liquor,0%
"Fc1ccc([C@]2(Cn3cncn3)O[C@H]2c2ccccc2Cl)cc1 (racemic) [epoxiconazole (A-1), (2RS,3SR)-1-[3-(2-chlorophenyl)-2,3-epoxy-2-(4-fluorophenyl)propyl]-1H-1,2,4-triazole]",Efficacy in % of the untreated control,[4]; 1.25 ppm in the spray liquor,0%
same,Efficacy in % of the untreated control,[4]; 2.5 ppm in the spray liquor,20%
same,Efficacy in % of the untreated control,[4]; 5 ppm in the spray liquor,77%
"CC(C)OC(=O)c1cc(C(=O)OC(C)C)cc([N+](=O)[O-])c1 [nitrophthal-isopropyl (N-1), diisopropyl 5-nitroisophthalate]",Efficacy in % of the untreated control,Botrytis cinerea; 12.5 ppm in the spray liquor,0%
same,Efficacy in % of the untreated control,Botrytis cinerea; 100 ppm in the spray liquor,33%
"CC(C)NC(=O)N1CC(=O)N(c2cc(Cl)cc(Cl)c2)C1=O [iprodione (F-1), N-isopropyl-3-(3,5-dichlorophenyl)-2,4-dioxoimidazolidine-1-carboxamide]",Efficacy in % of the untreated control,[2]; 12.5 ppm in the spray liquor,0%
same,Efficacy in % of the untreated control,[2]; 50 ppm in the spray liquor,0%
same,Efficacy in % of the untreated control,Alternaria solani [5]; 12.5 ppm in the spray liquor,0%
same,Efficacy in % of the untreated control,Alternaria solani [5]; 100 ppm in the spray liquor,0%
"CC1(C)CCC(Cc2ccc(Cl)cc2)C1(O)Cn1cncn1 (stereo not shown) [metconazole (A-3), 5-(4-chlorobenzyl)-2,2-dimethyl-1-[1,2,4]triazol-1-ylmethylcyclopentanol]",Efficacy in % of the untreated control,[4]; 1.25 ppm in the spray liquor,0%
same,Efficacy in % of the untreated control,[4]; 2.5 ppm in the spray liquor,0%
same,Efficacy in % of the untreated control,[4]; 5 ppm in the spray liquor,0%
"COC(=O)N(OC)c1ccccc1COc1ccn(-c2ccc(Cl)cc2)n1 [pyraclostrobin (B-1), methyl N-{2-[1-(4-chlorophenyl)-1H-pyrazol-3-yloxymethyl]phenyl}(N-methoxy)carbamate]",Efficacy in % of the untreated control,Alternaria solani [5]; 0.3125 ppm in the spray liquor,22%
same,Efficacy in % of the untreated control,Alternaria solani [5]; 0.625 ppm in the spray liquor,56%
"COC(=O)NC(=S)Nc1ccccc1NC(=S)NC(=O)OC [thiophanate-methyl (L-4), dimethyl 1,2-phenylenebis(iminocarbonothioyl)bis(carbamate)]",Efficacy in % of the untreated control,[2]; 6.3 ppm in the spray liquor,0%
same,Efficacy in % of the untreated control,[2]; 100 ppm in the spray liquor,0%
same,Efficacy in % of the untreated control,Alternaria solani [5]; 100 ppm in the spray liquor,0%
zinc ammoniate ethylenebis(dithiocarbamate) [metiram (K-2)],Efficacy in % of the untreated control,[2]; 12.5 ppm in the spray liquor,0%
same,Efficacy in % of the untreated control,[2]; 50 ppm in the spray liquor,0%
same,Efficacy in % of the untreated control,[2]; 100 ppm in the spray liquor,0%
"OC(Cn1cncn1)(c1ccc(F)cc1)c1ccccc1F (stereo not shown) [flutriafol (A-2), 1-(4-fluorophenyl)-1-(2-fluorophenyl)-2-[1,2,4]triazol-1-ylethanol]",Efficacy in % of the untreated control,[4]; 1.25 ppm in the spray liquor,0%
same,Efficacy in % of the untreated control,[4]; 2.5 ppm in the spray liquor,0%
same,Efficacy in % of the untreated control,[4]; 5 ppm in the spray liquor,0%
